Where two headings read alike, the source gives them in different places.
Tests used:
PAE 105250 = test: MIC, broth microdilution (CLSI), substance alone or ATB combined with compound at 4 or 8 μg/mL; assay type: cell-based, P. aeruginosa; settings: Pseudomonas aeruginosa; antibiotic alone; PAE 105250; read-out: MIC ATB alone
Summary of the method: (§1)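 Per CLSI-M7-A7, MICs are determined in cation-adjusted Mueller-Hinton broth with a final inoculum of 5·10^5 CFU/mL. Plates incubate 16-20 h at 35° C in air and are read by eye. Fosfomycin assays carry 25 μg/ml glucose-6-phosphate.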

PAE UFR48 [1] = test: as above; assay type: cell-based, P. aeruginosa; settings: Pseudomonas aeruginosa, antibiotic alone; PAE UFR48; read-out: MIC ATB alone
Summary of the method: as §1

PAE UFR90 [2] = test: as above; assay type: cell-based, P. aeruginosa; settings: PAE UFR90
Summary of the method: as §1

SAU 29213 = test: as above; assay type: cell-based, S. aureus; settings: Staphylococcus aureus
Summary of the method: as §1

KPN UFR42 = test: as above; assay type: cell-based, K. pneumoniae; settings: Klebsiella pneumoniae; antibiotic alone; KPN UFR42; read-out: MIC ATB alone
Summary of the method: as §1

KPN BAA-1898 = test: as above; assay type: cell-based, K. pneumoniae; settings: Klebsiella pneumoniae, BAA1898, KPN BAA-1898
Summary of the method: as §1

KPN 6299 = test: as above; assay type: cell-based, K. pneumoniae; settings: Klebsiella pneumoniae, antibiotic alone, read-out: MIC ATB alone
Summary of the method: as §1

KPN UFR68 = test: as above; assay type: cell-based, K. pneumoniae; settings: Klebsiella pneumoniae, substance alone
Summary of the method: as §1

ECL P99 = test: as above; assay type: cell-based, E. cloacae; settings: Enterobacter cloacae, ECL P99
Summary of the method: as §1

PAE 27853 = assay type: cell-based, P. aeruginosa; settings: tntbc: Too numerous to be counted
Experimental: (§2) Method 4: Determination of the Spontaneous Mutation Frequency of the Compounds Alone and Combined with Antibiotics.
(§3) Bacterial isolates (Table 3) were grown overnight at 35° C. on TSA plates (Becton-Dickinson and Company) in ambient air. After 24 h of incubation, isolated bacterial colonies were added to cation-adjusted Mueller-Hinton broth (ca-MHB; Becton-Dickinson and Company) and cultured for approximately 6 h at 35° C. The pre-culture was stopped once bacteria have reached an OD600 nm of 0.5 for 200 μL. The bacterial suspension was centrifuged at 4000 rpm for 20 min. The supernatant was then discarded and the bacterial pellet was dissolved in ca-MHB to obtain 10^9 to 10^10 CFU/mL. Assays including Fosfomycin were supplemented with 25 μg/ml of Glucose-6-phosphate. 100 μL of the adjusted bacterial suspension were spread on agar plates containing different concentrations of the compounds of the present invention alone or combined with an antibacterial (Table 1). The plates were incubated for 24-48 h at 35° C. in ambient air. CFU were numerated on each agar plate containing compound. The number of resistant colonies obtained was divided by the starting inoculum to give the frequency of spontaneous resistance for a given incubation time (24 and 48 h).

PAE UFR48 [3] = assay type: cell-based, P. aeruginosa; settings: tntbc: Too numerous to be counted
Experimental: as §2, §3

PAE UFR90 [4] = assay type: cell-based, P. aeruginosa; settings: tntbc: Too numerous to be counted
Experimental: as §2, §3

ECO 190317 = test: MIC, broth microdilution (CLSI), substance alone or ATB combined with compound at 4 or 8 μg/mL; assay type: cell-based, E. coli; settings: Escherichia coli, ECO 190317
Summary of the method: as §1

ECO UFR39 = test: as above; assay type: cell-based, E. coli; settings: Escherichia coli, ECO UFR39
Summary of the method: as §1

SPN 49619 = test: as above; assay type: cell-based, S. pneumoniae; settings: Streptococcus pneumoniae, SPN 49619
Summary of the method: as §1

[5] = antibiotic alone, read-out: MIC ATB alone

Molecule `C[C@@H]1O[C@@H]1P(=O)(O)O` [FOS, Fosfomycin, reference compound] has an MIC (PAE 105250) of 256 µg/mL, an MIC (PAE UFR48 [1]) of 16 µg/mL and an MIC (PAE UFR90 [2]; Pseudomonas aeruginosa, antibiotic alone, read-out: MIC ATB alone) of 8 µg/mL. It also gave an MIC (PAE UFR90 [2]; Pseudomonas aeruginosa, substance alone, read-out: MIC) of 16 µg/mL, an MIC (PAE UFR90 [2]; substance alone) of 8 µg/mL and an MIC (SAU 29213; antibiotic alone, SAU 29213, read-out: MIC ATB alone) of 2 µg/mL. For the same molecule, the MIC (SAU 29213; substance alone, SAU 29213 (MSSA 29213), read-out: MIC) was 2 µg/mL, the MIC (KPN UFR42) was 128 µg/mL and the MIC (KPN BAA-1898; [5]) was 64 µg/mL. The MIC (KPN BAA-1898; substance alone, read-out: MIC) was 64 µg/mL, the MIC (KPN 6299) was greater than 128 µg/mL and the MIC (KPN UFR68) was 32 µg/mL. The MIC (ECL P99; [5]) was greater than 1020 µg/mL, the MIC (ECL P99; substance alone, read-out: MIC) was greater than 1020 µg/mL and the “Frequency of spontaneous resistance” value (PAE 27853; single agent at 4.MIC) was 1.2E−06. The “Frequency of spontaneous resistance” value (PAE 27853; single agent at 8.MIC) was 1.4E−06, the “Frequency of spontaneous resistance” value (PAE UFR48 [3]; single agent at 4.MIC) was 1.1E−06 and the “Frequency of spontaneous resistance” value (PAE UFR48 [3]; single agent at 8.MIC) was 1.1E−06. For the same molecule, the “Frequency of spontaneous resistance” value (PAE UFR90 [4]; single agent at 4.MIC) was 3.0E−07, the “Frequency of spontaneous resistance” value (PAE UFR90 [4]; single agent at 8.MIC) was 2.0E−07 and the MIC (ECO 190317; [5]) was 0.5 µg/mL. For the same molecule, the MIC (ECO 190317; substance alone, read-out: MIC) was 0.5 µg/mL, the MIC (ECO UFR39; [5]) was 4 µg/mL and the MIC (ECO UFR39; substance alone, read-out: MIC) was 4 µg/mL. The MIC (SPN 49619; [5]) was 32 µg/mL and the MIC (SPN 49619; substance alone, read-out: MIC) was 32 µg/mL.
